Assay [1] has as its target T1, human calcitonin receptor (CT(a)R), U2OS CALCR cells (Homo sapiens, UniProt P30988).
T1 construct: host or cells: U2OS (PathHunter U2OS CALCR β-arrestin cell line)
T1 sequence (P30988 25-474): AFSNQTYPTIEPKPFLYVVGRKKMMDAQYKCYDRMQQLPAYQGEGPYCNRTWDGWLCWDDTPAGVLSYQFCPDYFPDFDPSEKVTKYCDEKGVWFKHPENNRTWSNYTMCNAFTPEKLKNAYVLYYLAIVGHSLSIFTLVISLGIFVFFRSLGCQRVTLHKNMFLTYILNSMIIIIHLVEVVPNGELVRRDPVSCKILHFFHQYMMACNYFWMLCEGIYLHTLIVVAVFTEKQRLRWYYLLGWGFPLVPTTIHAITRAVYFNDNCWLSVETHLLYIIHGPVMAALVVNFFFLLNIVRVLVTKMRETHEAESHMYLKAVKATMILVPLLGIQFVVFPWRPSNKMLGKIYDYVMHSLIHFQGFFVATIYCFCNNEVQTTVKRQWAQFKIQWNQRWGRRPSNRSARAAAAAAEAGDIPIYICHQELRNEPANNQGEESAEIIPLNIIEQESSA
The experiment in a line: Ligand association on live U2OS CALCR cells. The assay is classed as binding. As to conditions: 37°C. How it is done:
15,000 U2OS CALCR cells/well were seeded into 96 well culture plates the day prior to the experiment. All cell based binding kinetics studies were made identical in terms of ‘hot’ and ‘cold’ ligand concentrations and incubation times to match membrane studies. Post incubation sample extraction: The binding mixture and cells were mixed in culture medium in triplicates in 96-well plates and incubated at 37°C. At the end of the incubation, the binding mixture was removed and cells were washed three times in PBS to remove residual unbound ligand. 200 μL 0.5 M NaOH was added to each well and cells were allowed to solubilize for at least 20 min.
(§1) Samples, resuspended pellet or solubilized cell membrane, were transferred to borosilicate tubes and bound radioactivity was measured using a 1470 Wallac Wizard Gamma Counter.

Assay [2] addresses T2, human calcitonin receptor (CT(a)R), U2OS CALCR membranes (Homo sapiens, UniProt P30988).
T2 construct: host or cells: U2OS (PathHunter U2OS CALCR β-arrestin cell line)
T2 sequence (P30988 25-474): T1 sequence (P30988 25-474)
The experiment in a line: Ligand association on isolated U2OS CALCR membranes. The assay is classed as binding. As to conditions: ^125I ligand 0.25 nM; for association constant KON, membranes: room temperature (∼22°C), 20 mM HEPES, 1 mM CaCl2, 5 mM MgCl2, nonspecific with 250 nM unlabeled sCT, triplicate, mean ± SEM; for time to plateau of specific binding, membranes: ∼22°C. How it is done:
The binding kinetics of ^125I-(Tyr 22)-sCT and ^125I-(Tyr 12)-hCT were assessed using isolated membranes from Cos-7 CT(a)R or U2OS CALCR. Concentration of radio-labeled ligand was 0.25 nM unless otherwise specified. Membranes were isolated and purified as previously described. Membrane protein content was determined with a NanoDrop 1000 (Thermo Scientific). In general, radio-labeled ligand and membrane were mixed in binding buffer (20 mM HEPES, 1 mM CaCl2, 5 mM MgCl2) with complete protease inhibitor (11836170001, Roche), each condition in triplicate, in 96-well plates and incubation at room temperature (∼22°C) with shaking. Ligand association: The radio-labeled ligand was incubated with the membrane and the membrane-bound radioactivity was determined as described above at specific time points 2½, 5, 10, 20, 40, 80 and 160 min. Nonspecific binding was determined at each time point with co-incubation of 250 nM unlabeled sCT. Ligand dissociation: The radio-labeled ligand and membrane were incubated for one hour to allow ligand-receptor saturation. Dissociation was monitored following the addition of 250 nM unlabeled sCT to prevent rebinding of dissociated radio-ligand. The membrane-bound radioactivity (total binding) was determined at time 0, 1, 2, 4, 6, 24, 48 and 72 h after the initiation of dissociation. Competitive ligand binding: The radio-labeled ligand and membrane were co-incubated with one of seven different concentrations of corresponding unlabeled ligand (1 μM sCT or hCT with a fivefold dilution row) for one hour. Post incubation sample extraction: The binding mixtures were transferred to 1.5 ml Eppendorf tubes and centrifuged at 17,000 g (4°C for 5 min). Membrane pellets were washed with cold binding buffer, resuspended and then re-centrifuged (17,000 g, 4°C for 5 min).
as §1

The next assay has as its system CT(a)R. As to conditions: live cells; cited from earlier work. The text has this:
The calcitonins (CT) are a group of evolutionary conserved 32 amino acid peptide hormones, which have been isolated from many different species over the last 50 years and divided into several distinct groups based on structure and sequence. The calcitonins bind to the calcitonin receptor (CT(a)R), which belongs to the class B subfamily of G-protein coupled receptors (GPCRs), [3]. […] […].

A further assay deals with amylin receptor (AMY-R). Conditions: isolated membranes; cited from earlier work. The text has this:
(§2) The calcitonins (CT) are a group of evolutionary conserved 32 amino acid peptide hormones, which have been isolated from many different species over the last 50 years and divided into several distinct groups based on structure and sequence. The calcitonins bind to the calcitonin receptor (CT(a)R), which belongs to the class B subfamily of G-protein coupled receptors (GPCRs), [3].

The conditions of assay [3]: cited from earlier work.
Excerpt: as §2

These results are taken from paper PMC3958426, “Prolonged Calcitonin Receptor Signaling by Salmon, but Not Human Calcitonin, Reveals Ligand Bias” (PLoS ONE, 2014).

As to ^125I-(Tyr12)-hCT [^125I-hCT], in assay [1], the “peak binding, live cells, ^125I-hCT vs ^125I-sCT” value is given as “similar”. Also, in assay [1] (^125I ligand 0.25 nM), the “specific binding after 180 min compared to 20 min, live cells” value was below 20% and the “time of maximal specific binding, live cells” value was 20 min. In addition, in assay [2], the “association constant KON, membranes” value is 2.1±0.3×10^9 M^−1min^−1 and the “time to plateau of specific binding, membranes” value is around 8 min. The reversibility of binding entry with CT(a)R was “fully reversible”.
Take ^125I-(Tyr22)-sCT [^125I-sCT]: the “peak binding, live cells, ^125I-hCT vs ^125I-sCT” value in assay [1] is listed as “similar”. Besides, the “time to plateau of specific binding, live cells” value in assay [1] (^125I ligand 0.25 nM) was 180 min. In addition, the “association constant KON, live cells” value in assay [1] (^125I ligand 0.25 nM, triplicate, mean ± SEM) is reported as 1.1±0.1×10^8 M^−1min^−1. In assay [2], the “association constant KON, membranes” value is reported as 3.1±0.5×10^9 M^−1min^−1 and the “time to plateau of specific binding, membranes” value is listed as around 8 min.
Regarding “amylin (KCNTATCATQRLANFLVHSSNNFGAILSSTNVGSNTY; Islet amyloid polypeptide; UniProt P10997 34-70, looked up)”, in the assay on amylin receptor (AMY-R), the “dissociation from the amylin receptor” value is “fully reversible”.
With davalintide, the “dissociation from the amylin receptor” value with amylin receptor (AMY-R) was “dissociated very slowly”. In addition, in assay [3], the “duration of biological activity in vivo” value is recorded as “prolonged biological activity in vivo”.
